Experiments:
[1] = test system: BMRPA1 cells; test: NNK exposure of BMRPA1 cells, morphology; assay type: cell-based, rat; conditions: one 16 hour exposure
Protocol: NNK Exposures: All preparations of the carcinogen-containing media were made in a separate laboratory within a NCI-designed and certified chemical hood using prescribed protective measures. NNK (American Health Foundation, N.Y.) was prepared as a stock solution of 10 mg NNK in PBS and added to FBS-free cRPMI to make final concentrations of 100, 50, 10, 5, and 1 μg/ml. BMRPA1 cells at passage 36 (p36) were seeded at 10^5/60 mm TCDs and allowed to grow for 6 d. At this time the medium was removed, and the cells were washed 2× with prewarmed (37° C.), FBS-free cRPMI before they were treated with FBS-free cRPMI (4 ml/TCD) containing the different concentrations of NNK. A 6th set of TCDs containing BMRPA1 cells was incubated in FBS-free cRPMI without NNK and was used as controls. The eight TCDs used for each of the six sets of different culture conditions were returned to the 37° C. and 95% air-5% CO2 incubator. After 16 h, the NNK-containing medium was removed from all TCDs and the cells were washed 3× with PBS followed by addition of fresh cRPMI-10% FBS (4 ml/TCD), and the incubation continued. Control cultures without NNK were processed in parallel. The cells were fed every 2 d by replacing ½ of the spent medium with fresh cRPMI-10% FBS. At full confluency the cells were collected from all TCDs, the cells in each group were pooled, and passaged at 2×10^4 into fresh TCDs.

[2] = test system: BMRPA1 antigens
Protocol: Immunosubtractive Hyperimmunization Protocol (ISHIP): A mixture of live (10^6) and paraformaldehyde fixed and washed (10^6) cells was used for each immunization intraperitoneally (ip). Six female Balb/c mice (age˜12 wks) (Harlan-Sprague Dawley Labs, St. Louis) were used: two mice were injected 4× during standard immunizations with BMRPA1 cells. […] The other two immunosuppressed mice were injected weekly three more times with transformed BMRPA1.NNK cells, and a week later the mice were hyperimmunized with 5 additional injections of transformed BMRPA1.NNK cells in the 10 days preceding fusion (ISHIP mice). Sera were obtained from all mice within a week after the indicated number of immunizations.
Cell-Enzyme ImmunoAssay (Cell-EIA): BMRPA1 and BMRPA1.NNK cells were seeded in TCPs (96-wells) at 3×10^4/well with 0.1 mL cRPMI-10% FBS. The cells were allowed to adhere for 24 h, air dried, and stored under vacuum at RT. The cells were then rehydrated with PBS-1% BSA, followed by addition of either hybridoma supernatants or two fold serial dilutions of mouse sera to each well for 45 min at room temperature (RT). After washing with PBS-BSA, HRP-GαMIgG (1:100 in PBS-1% BSA) was added to each well for 45 min at RT. […] The substrate color development was assessed at OD490nm with a microplate reader (Bio-Rad 3550). […]

SMILES | Phenotypical changes of neoplastic transformation ([1]; 1 μg/ml NNK) | Cytotoxic changes ([1]; 5 and 1 μg NNK/mL) | Appearance of phenotypical changes indicative of neoplastic transformation ([1]; 100, 50, 10 μg NNK/ml) | Cytotoxic changes ([1]; larger concentrations of NNK (100, 50, 10 μg NNK/mL), serum free medium) | Immunosuppression of antibody titer to BMRPA1 cells (Cell-EIA with sera) ([2]; 3 injections of BMRPA1 cells, then cyclophosphamide i.p. for 5 days, 60 μg/day/g body weight) | Staining of rat pancreatic tissue by sera of BMRPA1 immunized, cyclophosphamide-treated mice ([2]; immunohistochemistry on rat pancreas)
CN(CCCC(=O)c1cccnc1)N=O [NNK, 4-(methyl-nitrosamino)-1-(3-pyridyl)-1 butanone] | phenotypical changes characteristic of neoplastic transformation but at a slower rate, over several weeks | observed considerably less | within a week | cytotoxic changes consisting of poorly attached, degenerating, dying cells, and slowed cell growth | – | –
O=P1(N(CCCl)CCCl)NCCCO1 (stereo not drawn) [cyclophosphamide] | – | – | – | – | strong immunosuppression | virtually no staining

From patent US20070036809A1, “Tolerance-induced targeted antibody production” (priority 2003, published 2007)
